According to patent publication US8277777B2, “Compound having affinity for amyloid” (Nihon Medi-Physics Co., Ltd., priority 2006, dated 2012):
Where two headings read alike, the source gives them in different places.

Columns and labels:
[1] = target: T1, amyloid (aggregated Aβ1-40) (Homo sapiens, UniProt P05067); test: in vitro amyloid binding test (inhibition of [125I]3′-I-BTA-0 binding); settings: [125I]3′-I-BTA-0 400 pmol/L, amyloid 1 μmol/L, 0.1% BSA phosphate buffer pH 7.4, 22°C, 3 hours
T1 construct: purchased Peptide Institute, INC
T1 sequence (P05067 672-711 limits assumed): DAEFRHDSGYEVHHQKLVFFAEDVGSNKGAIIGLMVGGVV
Description: The resulting samples were placed in each well (about 0.3 mL in volume) of a 96-well microplate.
The measured radioactivity level was defined as the background radioactivity level, and used in the calculation of the inhibition ratio (hereinafter referred to as BG).
(9) Using the radioactivity levels measured above in (7) and (8), the inhibition ratio was determined by the following formula (1).
A graph in which values converted by probit transformation from the obtained inhibition ratios were plotted relative to logarithms of concentrations of compounds for evaluation was prepared to obtain an approximate straight line by the least square method. Using the line, the concentration of each compound for evaluation was determined, at which the radioactivity level is half of the level of the sample free from each compound for evaluation, and was defined as a 50% inhibition concentration of each compound (hereinafter referred to as IC50% value).

[2] = test system: Salmonella typhimurium TA98; test: reverse mutation test (Ames test), TA98; format: cell-based
Description: (§1) In order to examine mutagenicity of Compound 1, Compound 2 and Compound 3, reverse mutation test using Salmonella typhimurium TA98 and TA100 (hereinafter referred to as Ames test) was conducted.
(§2) The test was conducted without addition of S9mix and with addition of S9mix. Dimethylsulfoxide was used as a negative control. A positive control was 2-(2-furyl)-3-(5-nitro-2-furyl)acrylamide in case S9mix was not added, and 2-aminoanthracene in case S9 mix was added.
(§3) The amount of each sample to be added to the test plate was 7 dosages (geometric ratio 4) with the maximum dose being 1250 μg/plate for Compound 1, and 7 dosages (geometric ratio 3) with the maximum dose being […] for Compound 2 and Compound 3. After a sample to be examined and a strain (TA98 or TA100), or a sample to be examined, S9mix and the strain were mixed together, the mixture was multilayered using soft agar on a medium of a test plate, and then incubated at 37° C. for 48 hours.

[3] = test system: Salmonella typhimurium TA100; test: reverse mutation test (Ames test), TA100; format: cell-based
Description: as §1, §2, §3

[4] = test system: Salmonella typhimurium TA98 and TA100; test: Ames test, overall judgment; format: cell-based; settings: regardless of addition of S9mix
Description: as §1, §2, §3

[5] = partition coefficient based on the octanol extraction method; format: physicochemical; settings: octanol / 10 mmol/L phosphate buffer (pH 7.4), radioactivity
Description: Partition coefficients based on the octanol extraction method (hereinafter referred to as log Poctanol) were measured, which are generally used as an indicator of permeability of compounds through the blood-brain barrier (hereinafter referred to as BBB).
To 2 mL of octanol, 10 μL of a solution containing Compound 4 (Example 5) and 2 mL of a 10 mmol/L phosphate buffer (pH 7.4) were added and stirred for 30 seconds. After the mixture was centrifuged (2000 rpm×60 min.) with a low-speed centrifuge (model: […] CT4D manufactured by Hitachi Koki Co., Ltd.), the octanol layer and the water layer were sampled each in an amount of 1 mL, and subjected to measurement of radioactivity with an autowell gamma system (manufactured by Aloka, Type: ARC-301B). Using the obtained radioactivity, log Poctanol was calculated in accordance with the equation (2).

[6] = transferability into brain and clearance; settings: rats, intravenous injection
Description: Using Compound 4, a time course change of radioactive accumulation in brain of male Wistar rats (7-week old) was measured.
The rats were sacrificed by bleeding from abdominal artery, and brains were removed and subjected to measurement of radioactivity (hereinafter referred to as A in this Example) with an autowell gamma system (Type: ARC-301B manufactured by Aloka Co., Ltd.) and further subjected to measurement of mass of brains 2, 5, 30 and 60 minutes after the injection. Also, radioactivity (hereinafter referred to as B in this Example) of 0.05 mL of a 1000-fold diluted solution of the injected solution was measured in the same manner as above. Using these measurement results, radioactive distributions per unit weight of brain (% ID/g) at the respective time points were calculated in accordance with the following formula (5). Three animals were used for experiment at the respective time points.

[7] = target: T2, intracerebral amyloid (aggregated Aβ1-42 injected into amygdaloid nucleus) (Homo sapiens, UniProt P05067); test: confirmation of imaging of amyloid in brain (autoradiogram of brain slice); format: in vivo, male Wistar rat; settings: rat, tail vein, brain removed 30 minutes after the injection
T2 construct: dissolving Aβ1-42 (Wako Pure Chemical Industries, Ltd.) in a phosphate buffer (pH 7.4); purchased Wako Pure Chemical Industries, Ltd
T2 sequence (P05067 672-713): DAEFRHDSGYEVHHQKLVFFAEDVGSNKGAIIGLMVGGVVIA
Description: The following experiment was carried out in order to examine whether amyloid in brain can be imaged by the compound of the present invention.
(1) A 1 mg/mL suspension of aggregated Aβ (hereinafter referred to as amyloid suspension in this Example) was obtained by dissolving Aβ1-42 (Wako Pure Chemical Industries, Ltd.) in a phosphate buffer (pH 7.4), followed by shaking at 37° C. for 72 hours.
(2) 2.5 μL (corresponding to […]) of the amyloid suspension was injected into an amygdaloid nucleus on one side of a male Wistar rat (7-week old). As a control, 2.5 μL of a phosphate buffered physiological saline solution (pH 7.4) was injected into an amygdaloid nucleus on the other side of the rat. The rats were examined 3 days after the injection of the amyloid suspension and the phosphate buffered physiological saline solution.
(3) Compound 4 was dissolved in a 10 mg/mL ascorbic acid-containing physiological saline solution to obtain a sample solution (84 MBq/mL in radioactivity concentration). This solution was injected into the rat through the tail vein (dosage: 0.5 mL, dosed radioactivity: 42 MBq equivalent).
(4) Brain was removed 30 minutes after the injection to prepare a brain slice of 10 μm in thickness with a microtome (type: CM3050S, manufactured by LEICA). […]

[8] = partition coefficient based on HPLC; format: physicochemical; settings: mobile phase 50 mM triethylamine phosphate (pH 7.2)/acetonitrile=40/60, formula (4)
Description: The partition coefficient by HPLC (hereinafter referred to as log PHPLC) was measured by the following method.
First, compounds for evaluation shown in Table 5 were dissolved at a concentration of 1 mg/mL in methanol containing 10% dimethylsulfoxide to prepare sample solutions. One μL of the sample solution was subjected to HPLC analysis under the following conditions to determine the elution time (tO) of the solvent and the elution time (tR) of each compound.
Column: Prodigy ODS (3) (product name; manufactured by phenomenex; size: 4.6×250 mm)
Mobile phase: a mixed solution of 50 mM triethylamine phosphate (pH 7.2)/acetonitrile=40/60
Detector: ultraviolet visible absorptiometer (detection wavelength: 282 nm)
Using the obtained tO and tR, the retention factor (hereinafter referred to as K′HPLC value) of each compound for evaluation was determined according to the calculation formula (3). K′HPLC=(tR−t0)/t0 (3) […]
Using K′HPLC obtained for each compound for evaluation, the log PHPLC value of each compound for evaluation was determined according to the above calculation formula (4).

amyloid = settings: [125I]-labeled; cited from earlier work
[9] = [125I]-labeled, normal mice, cited from earlier work; for transfer into brain: 2 minutes after administration
[10] = [11C]-labeled, rats; cited from earlier work
[11] = TA98, without addition of S9mix
[12] = TA100, without addition of S9mix

## Oc1ccc2nc(-c3ccc(OCCCF)cc3)cn2c1 [Compound 2, 2-[4′-(3″-fluoropropoxy)phenyl]-6-hydroxyimidazo[1,2-a]pyridine]
[1]
  IC50: 0.0305 µM
[2]; TA98, with addition of S9mix
  Mutagenicity: Negative
[2]; [11]
  Mutagenicity: Negative
[3]; TA100, with addition of S9mix
  Mutagenicity: Negative
[3]; [12]
  Mutagenicity: Negative
[4]
  Ames test judgment: negative

## 2-[4′-(3″-[^18F]fluoropropoxy)phenyl]-6-methoxyimidazo[1,2-a]pyridine [Compound 4]
[5]
  logPoctanol value: 1.8
[6]; after 2 min.
  Radioactive concentration per unit weight in brain: 1.36 % ID/g
[6]; after 5 min.
  Radioactive concentration per unit weight in brain: 0.93 % ID/g
[6]; after 30 min.
  Radioactive concentration per unit weight in brain: 0.23 % ID/g
[6]; after 60 min.
  Radioactive concentration per unit weight in brain: 0.13 % ID/g
[7]
  accumulation of radioactivity on intracerebral amyloid: possesses a property of accumulating on intracerebral amyloid

## COc1ccc2nc(-c3ccc(OCCCF)cc3)cn2c1 [Compound 1, 2-[4′-(3″-fluoropropoxy)phenyl]-6-methoxyimidazo[1,2-a]pyridine]
[1]
  IC50: 0.0011 µM
[2]; TA98, with addition of S9mix
  Mutagenicity: Negative
[2]; [11]
  Mutagenicity: Negative
[3]; TA100, with addition of S9mix
  Mutagenicity: Negative
[3]; [12]
  Mutagenicity: Negative
[4]
  Ames test judgment: negative

## CN(C)c1ccc(-c2cn3cc(I)ccc3n2)cc1 [IMPY, 6-iodo-2-[4′-(N,N-dimethylamino)phenyl]imidazo[1,2-a]pyridine]
[8]
  logPHPLC value: 2.1
amyloid
  clearance from normal tissues: rapid clearance from normal tissues
  transfer to brain and accumulation at amyloid after administration: transferring to brain and accumulating at amyloid

## CN(C)c1ccc(-c2nc3ccc(I)cc3o2)cc1 [IBOX, 6-iodo-2-[4′-(N,N-dimethylamino)phenyl]benzoxazole]
[9]
  transfer into brain: transferred into brain
  clearance from normal tissues: insufficient in clearance from normal tissues

## CN(C)c1ccc(/C=C/c2ccc(I)cc2)cc1 [m-I-SB, (E)-4-dimethylamino-4′-iodostilbene]
[9]
  transfer into brain: transferred into brain
  clearance from normal tissues: insufficient in clearance from normal tissues

## CN(C)c1ccc(-c2cn3cc([123I])ccc3n2)cc1 [[^123I]-IMPY, reference compound]
[5]
  logPoctanol value: 2.1
[6]; after 2 min.
  Radioactive concentration per unit weight in brain: 1.02 % ID/g
[6]; after 5 min.
  Radioactive concentration per unit weight in brain: 0.99 % ID/g
[6]; after 30 min.
  Radioactive concentration per unit weight in brain: 0.20 % ID/g
[6]; after 60 min.
  Radioactive concentration per unit weight in brain: 0.08 % ID/g

## Nc1c(/N=N/c2ccc(-c3ccc(/N=N/c4cc(S(=O)(=O)O)c5ccccc5c4N)cc3)cc2)cc(S(=O)(=O)O)c2ccccc12 [Congo Red, reference compound]
[1]
  IC50: > 1 µM

## FCCCOc1ccc(-c2cn3ccccc3n2)cc1 [Compound 3, 2-[4′-(3″-fluoropropoxy)phenyl]imidazo[1,2-a]pyridine]
[1]
  IC50: 0.0366 µM
[8]; read-out: logPHPLC value
  chromatographic logP: 1.7
[2]; TA98, with addition of S9mix
  Mutagenicity: Negative
[2]; [11]
  Mutagenicity: Negative
[3]; TA100, with addition of S9mix
  Mutagenicity: Negative
[3]; [12]
  Mutagenicity: Negative
[4]
  Ames test judgment: negative

## CNc1ccc(/C=C/c2ccc(O)cc2)cc1 [SB-13, (E)-4-methylamino-4′-hydroxystilbene]
[10]
  clearance from normal tissues: it cannot be said that the clearance is sufficiently fast

## CN(C)c1ccc(-c2nc3ccc(I)cc3s2)cc1 [TZDM, 6-iodo-2-[4′-(N,N-dimethylamino)phenyl]benzothiazole]
[9]
  transfer into brain: transferred into brain
  clearance from normal tissues: insufficient in clearance from normal tissues
